“Also recorded” adds a separate entry of the source.
Tests used:
[1] = system: chick embryo vitelline capillaries; test: Chick embryo vitelline capillary regression assay; assay type: in vivo; design: key to vascular reactivity (capillary regression): +: Vascular reactivity; 0: No vascular reactivity; +/-: Equivocal reactivity; conditions: for Chick embryo diss. assay, Minimum Effective Concentration: Table II; for vascular reactivity (capillary regression): 60 min; for effect on chick embryo vessels / blood: in words
Protocol: Using the chick embryo vitelline capillaries assay, compounds were tested for their ability to induce capillary regression. Each compound was applied in 0.1 ml of 15% Ficol 400 and PBS onto the embryo, and vascular regression was assessed after 60 minutes.
The 3-day chick embryo consists of an embryonic disc from which numerous vessels emerge and return, forming a "figure 8"-shaped structure--the embryo in the center with vascular loops extending outward over both poles. […] Following a lag period of around 15 minutes, the constriction of continuity between capillary and secondary vessels, generally on the "avenous" side, was observed. Continued pulsatile blood flow progressed, resulting in a "swelling" of the blind tube, followed by a pinching off of the remaining connection and formation of an enclosed vascular sac resembling a "blood island." This process progressed until only the largest vessels remained intact.

Xenopus tadpole = conditions: stage 59-60, 10 μg/ml; in words
[2] = system: human microvascular cells; test: Inhibition of endothelial cell cord formation in vitro; assay type: cell-based; conditions: Homo sapiens, Endothelial cell; Table II; read-out: Cord Formation, Minimum Effective Concentration
Description: Endothelial cells have the capacity in vitro to form tubular aggregates resembling capillaries in various early stages of formation. This conversion occurs under relatively specific conditions, in which essential growth factors along with an effective substratum are provided. It has been shown that both the interaction of growth factors with the endothelial cell and its attachment to a substratum activate the NHE. The activation of this exchanger is believed to be required for subsequent morphologic transformation of the endothelial cell into a multicellular tubular structure.
To assess the effect of compounds on the cord-like structures formed by human microvascular cells when plated in the presence of VEFG (Vascular Endothelial Growth Factor) and basic fibroblast growth factor on a collagen matrix, a standard cord formation assay was used.

B16 melanoma = B16 melanoma growth in C57B mice; assay type: in vivo, mouse; conditions: compound 319, text subcutaneous, FIG. 6 legend intraperitoneal
Protocol: The growth of B16 melanoma in C57B mice is dependent upon neovascularization.
Using the growth of B16 melanoma cells in C57B mice, a recognized model for the evaluation of inhibitors of angiogenesis on the growth of cancers, the effects of subcutaneous, intraperitoneal and oral administration of squalamine were evaluated.
In this model, there was observed little evidence of metastasis with or without treatment with chemotherapeutic agents.
Based on the idea that tumor growth involves both the clonal expansion of a malignant cell along with the development of a supporting vascular supply, a combination of compound 1436 with squalamine was tested to determine whether it would achieve a synergistic effect on solid tumor growth. This concept was evaluated in the B16 melanoma model.
Animals were implanted with B16 melanoma followed by treatment with compound 1436 or 1256 administered in a combined schedule or separately. […] Thus, a combination of these two compounds achieves a therapeutic benefit in tumors dependent on neovascularization that may prevent metastatic spread.

[3] = Hematological profile in L1210-inoculated mice
Description: C57B mice were inoculated with L1210 lymphoblastic leukemia cells at an inoculum that causes leukemia in 100% of animals.

NHE1β = conditions: background, nucleated erythrocytes; cited from earlier work
[4] = Fasting blood glucose in mice; assay type: in vivo, mouse (male CD-1); conditions: mouse, in vivo, iv
Protocol: To study the effect of steroid administrator or the NHE responsible for secretion of insulin, several of the aminosterols from shark liver were administered to fasting mice. Male CD-1 mice were assigned to one of four treatment groups. Whole blood glucose was tested using glucometer (Lifescan Glucometer II and One Touch test strips). Statistical analysis was via one-way analysis of variance (ANOVA) followed by subsequent Bonferonni's t-test.

[5] = system: Human ovarian carcinoma SKOV3; test: Growth inhibition in vitro; assay type: cell-based; conditions: in words
Description: As set forth in Table 7 below, all malignant tumors evaluated in tissue culture, endothelial cells and vascular smooth muscle cells were sensitive to inhibition. Thus, compound 1436 has application in the control of growth factor dependent proliferation of many types of tissue.

human melanoma = test: Growth of human melanoma cells over time / cell death; assay type: cell-based
[6] = L1210 mice, cisplatin 8 mg/kg ip or compound 1436 10 mg/kg ip q4d

| SMILES | Chick embryo diss. assay, Minimum Effective Concentration [1] [µg] | pharmacological response in tadpole (Xenopus tadpole) | vascular reactivity (capillary regression) ([1]; 1 μg applied) | further results |
| --- | --- | --- | --- | --- |
| COC(=O)CC[C@@H](C)[C@H]1CC[C@H]2[C@@H]3C[C@@H](O)[C@H]4C[C@H](NCCN)CC[C@]4(C)[C@H]3CC[C@]12C [Compound 431] | > 1 | functionally similar to compound 1437 |  |  |
| COC(=O)CC[C@@H](C)[C@H]1CC[C@H]2[C@@H]3C[C@@H](O)[C@H]4C[C@@H](NCCN)CC[C@]4(C)[C@H]3CC[C@]12C [Compound 432] | > 1 | functionally similar to compound 1437 |  |  |
| C[C@H](CCC(=O)O)[C@H]1CC[C@H]2[C@@H]3CC[C@H]4C[C@@H](NCCCNCCCCN)CC[C@]4(C)[C@H]3CC[C@]12C [Compound 319] | 0.001 | common vascular occlusive effect | + | vascular reactivity (capillary regression) ([1]; 0.001 μg applied): +/-; vascular reactivity (capillary regression) ([1]; 0.01 μg applied): +; vascular reactivity (capillary regression) ([1]; 0.1 μg applied): +; vascular reactivity (capillary regression) ([1]; 10 μg applied): +; effect on chick embryo vessels / blood [1]: especially active; minimal effective concentration [2]: 13.8 µg/mL; suppression of B16 melanoma tumor growth (B16 melanoma): achieved control of B16 in C57B mice to an extent almost comparable to squalamine; suppression of B16 melanoma tumor growth (B16 melanoma; listed as compound 319): suppression of murine melanoma in mice |
| N.N.[Cl][Pt][Cl] [Cisplatin] |  |  |  | RBC, Early Time [3, 6]: 9.4 10^6 /mm^3; RBC, Late Time [3, 6]: 1.5 10^6 /mm^3; WBC, Early Time [3, 6]: 8.1 10^3 /mm^3; WBC, Late Time [3, 6]: 18.1 10^3 /mm^3; hematological profile ([3]; in words): profound anemia by day 28 |
| COC(=O)CC[C@@H](C)[C@H]1CC[C@H]2[C@@H]3CC[C@H]4C[C@H](NCCCNCCCCNCCCN)CC[C@]4(C)[C@H]3CC[C@]12C [Compound 458] | > 1 | pharmacologic activity similar to that seen for FX 3 |  |  |
| COC(=O)CC[C@@H](C)[C@H]1CC[C@H]2[C@@H]3[C@H](O)C[C@@H]4C[C@H](NCCN)CC[C@]4(C)[C@H]3CC[C@]12C [Compound 410] | 0.01 | functionally similar to compound 1437 | + | vascular reactivity (capillary regression) ([1]; 0.001 μg applied): 0; vascular reactivity (capillary regression) ([1]; 0.01 μg applied): +/-; vascular reactivity (capillary regression) ([1]; 0.1 μg applied): +/- |
| C[C@H](CCC(=O)O)[C@H]1CC[C@H]2[C@@H]3[C@H](O)C[C@@H]4C[C@H](NCCCNCCCCNCCCN)CC[C@]4(C)[C@H]3CC[C@]12C [Compound 412] | 1 | pharmacologic activity similar to that seen for FX 3 | + | vascular reactivity (capillary regression) ([1]; 0.001 μg applied): 0; vascular reactivity (capillary regression) ([1]; 0.01 μg applied): 0; vascular reactivity (capillary regression) ([1]; 0.1 μg applied): 0 |
| COC(=O)CC[C@@H](C)[C@H]1CC[C@H]2[C@@H]3C[C@@H](O)[C@H]4C[C@@H](NCCCNCCCCNCCCN)CC[C@]4(C)[C@H]3CC[C@]12C [Compound 466] | 1 | pharmacologic activity similar to that seen for FX 3 |  |  |
| COC(=O)CC[C@@H](C)[C@H]1CC[C@H]2[C@@H]3CC[C@H]4C[C@@H](NCCCNCCCCNCCCN)CC[C@]4(C)[C@H]3CC[C@]12C [Compound 459] | > 1 | pharmacologic activity similar to that seen for FX 3 |  |  |
| COC(=O)CC[C@@H](C)[C@H]1CC[C@H]2[C@@H]3CC[C@@H]4C[C@H](NCCN)CC[C@]4(C)[C@H]3C[C@H](O)[C@]12C [Compound 416] | > 1 | functionally similar to compound 1437 |  |  |
| N=C(N)NC(=O)c1nc(Cl)c(N)nc1N [Amiloride] |  |  |  | inhibition of NHE1β (NHE1β): inhibited by high concentrations of amiloride |
| C[C@H](CCC(=O)O)[C@H]1CC[C@H]2[C@@H]3C[C@@H](O)[C@H]4C[C@@H](NCCN)CC[C@]4(C)[C@H]3CC[C@]12C [Compound 433] | 1 | functionally similar to compound 1437 |  |  |
| CC(C)C(CO)(CC[C@@H](C)[C@H]1CC[C@H]2[C@@H]3[C@H](O)C[C@H]4C[C@@H](NCCCNCCCCN)CC[C@]4(C)[C@H]3CC[C@]12C)OS(=O)(=O)O (stereo partly shown) [Compound 1437] | > 1 |  |  | hyperglycemia [4]: caused hyperglycemia in mice; anticancer activity [5]: anticancer activity against the human ovarian carcinoma, SKOV3 |
| C[C@H](CCC(=O)O)[C@H]1CC[C@H]2[C@@H]3[C@H](O)C[C@@H]4C[C@H](NCCN)CC[C@]4(C)[C@H]3CC[C@]12C [Compound 414] | > 1 | pharmacologic activity similar to Fraction 1 | 0 |  |
| CC(C)CCC[C@@H](C)[C@H]1CC[C@H]2[C@@H]3CC[C@H]4C[C@@H](NCCCNCCCCNCCCN)CC[C@]4(C)[C@H]3CC[C@]12C [Compound 353] | > 1 | effects like those produced by compound 1436 | +/- | effect on growth of melanoma (human melanoma; 48 hours vs first 12 hours): most pronounced over 48 hours, with less of an effect noted within the first 12 hours of incubation; mode of cell death / activity against melanoma (human melanoma; in words): potent activity against melanoma and a number of cancer cells; also recorded: apoptotic cell death has been induced; effect on chick embryo vessels / blood [1]: no effect on the chick embryo capillary bed |

Source: patent US5840740A, “Aminosterol compounds and a method of treating infection using the aminosterol compounds” (priority 1995, dated 1998)
